Test results: PMC10747733, “N-Substituted 2-(Benzenosulfonyl)-1-Carbotioamide Derivatives Exert Antimicrobial and Cytotoxic Effects via Aldehyde Dehydrogenase Pathway: Synthesis, In Silico and In Vitro Studies” (Pharmaceuticals, 2023)
Converted amounts (≈) assume the structure as drawn. “Also recorded” adds a separate entry of the source.

Columns and labels:
[1] = system: Gram-positive bacteria; assay: Broth microdilution, summary over reference Gram-positive bacteria; assay type: cell-based; conditions: for share of reference Gram-positive strains with moderate activity: moderate activity: MIC 126–500 µg/mL; for share of reference Gram-positive strains with moderate activity / share of reference Gram-positive strains with no activity / share of reference Gram-positive strains with good activity / share of reference Gram-positive strains with mild activity: 8 strains; for share of reference Gram-positive strains with no activity: no activity: MIC > 1000 µg/mL; for share of reference Gram-positive strains with good activity: good activity: MIC 26–125 µg/mL; for share of reference Gram-positive strains with mild activity: mild activity: MIC 501–1000 µg/mL
Source text: (§1) Reference strains of microorganisms that came from American Type Culture Collection (ATCC) (Manassas, VA, USA) were used for this study. The representative Gram-positive bacteria were as follows: Staphylococcus aureus ATCC 25923, Staphylococcus aureus ATCC 29213, Staphylococcus aureus ATCC 43300, Staphylococcus epidermidis ATCC 12228, Enterococcus faecalis ATCC 29212, Micrococcus luteus ATCC 10240, Bacillus subtilis ATCC 6633 and Bacillus cereus ATCC 10876. While, those of Gram-negative bacteria were as follows: Bordetella bronchiseptica ATCC 4617, Escherichia coli ATCC 25922, Klebsiella pneumoniae ATCC 13883, Proteus mirabilis ATCC 12453, Salmonella Typhimurium ATCC 14028 and Pseudomonas aeruginosa ATCC 9027. Moreover, the following fungi belonging to yeasts were used: Candida albicans ATCC 10231, Candida albicans ATCC 2091, Candida parapsilosis ATCC 22019, Candida glabrata ATCC 90030 and Candida krusei ATCC 14243.
(§2) The new compounds WZ1–WZ4 were assayed for both antibacterial and antifungal activity using the broth microdilution method in accordance with the European Committee on Antimicrobial Susceptibility Testing (EUCAST) and Clinical and Laboratory Standards Institute (CLSI) guidelines. The microorganisms were grown at 35 °C for 18–24 h on appropriate media (nutrient agar and Sabouraud for bacteria and fungi, respectively) (BioMaxima S.A., Lublin, Poland). Next, microbial suspensions with an optical density of 0.5 McFarland standard scale (in sterile 0.85% NaCl) were prepared. In turn, the tested compounds were initially diluted at 50 mg/mL in dimethyl sulfoxide (DMSO) and the broth microdilution method was used to assess their minimum inhibitory concentrations (MICs). For these studies, selective broth Mueller-Hinton (MH) (BioMaxima S.A., Lublin, Poland) and RPMI (Roswell Park Memorial Institute) 1640 with MOPS (3-(N-Morpholino)propanesulfonic acid) (Sigma-Aldrich Chemicals, St. Louis, MO, USA) were used for bacteria and fungi, respectively. The antimicrobial effect of compounds WZ1–WZ4 was determined in the concentration range from 2000 to 0.98 µg/mL.
(§3) Then, the microbial suspensions were introduced into each well of the microplate and incubated for 18–24 h at 35 °C. […] The reference drugs ciprofloxacin or vancomycin (against bacteria) and nystatin (against fungi) (Sigma-Aldrich Chemicals, St. Louis, MO, USA) were also used. Next, the values of the minimum bactericidal concentration (MBC) and minimum fungicidal concentration (MFC) of WZ1–WZ4 were assessed. For this purpose, the cultures from each MIC determination well were transferred to a suitable solid medium and incubated under appropriate conditions. The lowest concentrations of compounds without microbial growth were read as MBC or MFC. The studies were performed in triplicate and representative data were gathered.
(§4) In turn, the MBC/MIC or MFC/MIC ratios were used to assess bactericidal/fungicidal (MBC/MIC or MFC/MIC ≤ 4) and bacteriostatic/fungistatic (MBC/MIC or MFC/MIC > 4) effect of these compounds [93].

[2] = system: Staphylococcus aureus ATCC 29213; assay: Broth microdilution antimicrobial activity; assay type: cell-based; conditions: for MBC / MIC: ATCC29213; for MBC / MIC / MBC/MIC: Staphylococcus aureus ATCC 29213
Source text: as §1, §2, §3, §4

[3] = system: Bacillus subtilis ATCC 6633; assay: Broth microdilution antimicrobial activity; assay type: cell-based; conditions: for MBC / MIC: ATCC6633
Source text: as §1, §2, §3, §4

[4] = system: Pseudomonas aeruginosa ATCC 9027; assay: Broth microdilution antimicrobial activity; assay type: cell-based; conditions: for MBC / MIC: ATCC9027
Source text: as §1, §2, §3, §4

[5] = system: Candida krusei ATCC 14243; assay: Broth microdilution antimicrobial activity; assay type: cell-based; conditions: for MFC / MIC: Pichia kudriavzevii; for MFC: ATCC14243, read-out: MFC; for MIC: ATCC14243, read-out: MIC
Source text: as §1, §2, §3, §4

[6] = system: Staphylococcus epidermidis ATCC 12228; assay: Broth microdilution antimicrobial activity; assay type: cell-based; conditions: for MBC / MIC: ATCC12228
Source text: as §1, §2, §3, §4

[7] = system: Bacillus cereus ATCC 10876; assay: Broth microdilution antimicrobial activity; assay type: cell-based; conditions: for MBC / MIC: ATCC10876
Source text: as §1, §2, §3, §4

[8] = system: Micrococcus luteus ATCC 10240; assay: Broth microdilution antimicrobial activity; assay type: cell-based; conditions: for MBC / MIC: ATCC10240
Source text: as §1, §2, §3, §4

[9] = system: Salmonella Typhimurium ATCC 14028; assay: Broth microdilution antimicrobial activity; assay type: cell-based; conditions: for MBC / MIC: Salmonella enterica
Source text: as §1, §2, §3, §4

[10] = system: ALDH1A1; assay: ALDH1A1 concentration by ELISA in Du145 cells; assay type: cell-based, human
Method: The effect of compounds WZ1–WZ4 on ALDHA1 levels was investigated (Figure 10). The Du145, HepG2 and 769-P cell lines were treated with the calculated IC25 values for each compound.
Selected cell lines, viz HepG2, Du145 and 769-P, were seeded into 6-well plates and incubated for 24 h after seeding with compounds at a concentration equal to IC25. After a further 24 h or 48 h, cells were detached with trypsin and centrifuged. The resulting cell pellet was resuspended in 0.5 mL PBS. The samples were then sonicated, and protein was determined using the Bradford method (Bio-rad; Hercules, CA, USA). Samples were equilibrated to 10 mg/mL of protein, and ALDH1A1 was determined in the samples prepared in this way. ALDH1A1 determination was performed using an ELISA (SEE824Hu; Cloud Clone Corp., Katy, TX, USA), according to the manufacturer’s protocol.

[11] = almost all Gram-positive bacteria

| SMILES | MBC [2] | MIC [2] | MBC/MIC [2] | MBC/MIC [3] | MBC [3] | MIC [3] | MBC/MIC [4] | MBC [4] | MIC [4] | MFC/MIC [5] | MFC [5] | MIC [5] | MBC/MIC [6] | MBC [6] | MIC [6] | MBC/MIC [7] | MBC [7] | MIC [7] | MBC/MIC [8] | MBC [8] | other results |
| --- | --- | --- | --- | --- | --- | --- | --- | --- | --- | --- | --- | --- | --- | --- | --- | --- | --- | --- | --- | --- | --- |
| O=S(=O)(NNC(=S)NC1CCCCC1)c1ccccc1 [WZ1, 2-(Benzenesulfonyl)-N-Cyclohexylhydrazine-1-Carbothioamide] | > 2000 µg/mL | 500 µg/mL (≈ 1600 µM) | > 4 | > 4 | > 2000 µg/mL | 500 µg/mL (≈ 1600 µM) | > 1 | > 2000 µg/mL | > 2000 µg/mL | > 1 | > 2000 µg/mL | > 2000 µg/mL | > 8 | > 2000 µg/mL | 250 µg/mL (≈ 798 µM) | > 4 | > 2000 µg/mL | 500 µg/mL (≈ 1600 µM) | > 4 | > 2000 µg/mL | MIC ([1]; Enterococcus faecalis, Gram-positive bacteria except E. faecalis): 250 to 500 µg/mL (≈ 798 to 1600 µM); MIC [1, 11]: 62.5 to 500 µg/mL (≈ 199 to 1600 µM); share of reference Gram-positive strains with moderate activity [1]: 87.5%; share of reference Gram-positive strains with no activity [1]: 12.5%; MIC [8]: 500 µg/mL (≈ 1600 µM); MBC/MIC [9]: > 1; MBC [9]: > 2000 µg/mL; MIC [9]: > 2000 µg/mL |
| CCCCCCNC(=S)NNS(=O)(=O)c1ccccc1 [WZ3, 2-(Benzenesulfonyl)-N-Hexylhydrazine-1-Carbothioamide] | 500 µg/mL (≈ 1580 µM) | 500 µg/mL (≈ 1580 µM) | 1 | 4 | 500 µg/mL (≈ 1580 µM) | 125 µg/mL (≈ 396 µM) | 1 | 1000 µg/mL (≈ 3170 µM) | 1000 µg/mL (≈ 3170 µM) | 2 | 1000 µg/mL (≈ 3170 µM) | 500 µg/mL (≈ 1580 µM) | 1 | 250 µg/mL (≈ 792 µM) | 250 µg/mL (≈ 792 µM) | 1 | 250 µg/mL (≈ 792 µM) | 250 µg/mL (≈ 792 µM) | 2 | 500 µg/mL (≈ 1580 µM) | MIC ([1]; Bacillus subtilis, remaining Gram-positive microorganisms (other than B. subtilis)): 250 to 500 µg/mL (≈ 792 to 1580 µM); MIC [1, 11]: 62.5 to 500 µg/mL (≈ 198 to 1580 µM); share of reference Gram-positive strains with good activity [1]: 12.5%; share of reference Gram-positive strains with moderate activity [1]: 87.5%; MBC/MIC ratio ([1]; most Gram-positive bacteria): 1–4; MIC [8]: 250 µg/mL (≈ 792 µM); MBC/MIC [9]: > 2; MBC [9]: > 2000 µg/mL; MIC [9]: 1000 µg/mL (≈ 3170 µM); ALDH1A1 concentration compared to control ([10]; compound at IC25, 48 h): decrease; also recorded: significantly reduced |
| CNC(=S)NNS(=O)(=O)c1ccccc1 [WZ4, 2-(Benzenesulfonyl)-N-Methylhydrazine-1-Carbothioamide] | > 2000 µg/mL | 1000 µg/mL (≈ 4080 µM) | > 2 | 16 | 2000 µg/mL (≈ 8150 µM) | 125 µg/mL (≈ 510 µM) | > 1 | > 2000 µg/mL | > 2000 µg/mL | 4 | 2000 µg/mL (≈ 8150 µM) | 500 µg/mL (≈ 2040 µM) | 4 | 500 µg/mL (≈ 2040 µM) | 125 µg/mL (≈ 510 µM) | 2 | 125 µg/mL (≈ 510 µM) | 62.5 µg/mL (≈ 255 µM) | 2 | 500 µg/mL (≈ 2040 µM) | MIC ([1]; Staphylococcus aureus ATCC 43300, Staphylococcus aureus ATCC 25923 and Micrococcus luteus): 250 to 500 µg/mL (≈ 1020 to 2040 µM); MIC ([1]; Staphylococcus epidermidis, Bacillus subtilis and Bacillus cereus): 62.5 to 125 µg/mL (≈ 255 to 510 µM); MIC [1, 11]: 62.5 to 500 µg/mL (≈ 255 to 2040 µM); share of reference Gram-positive strains with good activity [1]: 37.5%; share of reference Gram-positive strains with mild activity [1]: 25%; share of reference Gram-positive strains with moderate activity [1]: 37.5%; MBC/MIC ratio ([1]; most Gram-positive bacteria): 1–4; MIC [8]: 250 µg/mL (≈ 1020 µM); MBC/MIC [9]: > 1; MBC [9]: > 2000 µg/mL; MIC [9]: > 2000 µg/mL; ALDH1A1 concentration compared to control ([10]; compound at IC25, 24 h): decrease; ALDH1A1 concentration compared to control ([10]; compound at IC25, 48 h): decrease; also recorded: significantly reduced |
| CCCCNC(=S)NNS(=O)(=O)c1ccccc1 [WZ2, 2-(Benzenesulfonyl)-N-Butylhydrazine-1-Carbothioamide] | > 2000 µg/mL | 2000 µg/mL (≈ 6960 µM) | > 1 | > 2 | > 2000 µg/mL | 1000 µg/mL (≈ 3480 µM) | > 1 | > 2000 µg/mL | > 2000 µg/mL | > 1 | > 2000 µg/mL | 2000 µg/mL (≈ 6960 µM) | > 2 | > 2000 µg/mL | 1000 µg/mL (≈ 3480 µM) | 2 | 2000 µg/mL (≈ 6960 µM) | 1000 µg/mL (≈ 3480 µM) | 2 | 2000 µg/mL (≈ 6960 µM) | share of reference Gram-positive strains with mild activity [1]: 62.5%; MIC ([1]; most Gram-positive bacteria): 1000 µg/mL (≈ 3480 µM); share of reference Gram-positive strains with no activity [1]: 37.5%; bioactivity class ([2]; S. aureus ATCC 29213): no bioactivity (no bioactivity (MIC > 1000 µg/mL)); MIC [8]: 1000 µg/mL (≈ 3480 µM); MBC/MIC [9]: > 1; MBC [9]: > 2000 µg/mL; MIC [9]: > 2000 µg/mL; ALDH1A1 concentration compared to control ([10]; compound at IC25, 24 h): increased; ALDH1A1 concentration compared to control ([10]; compound at IC25, 48 h): decrease; also recorded: significantly reduced |
